Patent US10604514B2, “6-(5-membered heteroaryl)isoquinolin-3-yl carboxamides and preparation and use thereof” (Samumed, LLC, priority 2017, dated 2020)
Read-outs that look alike come from different tables or passages of the source.

Tests used:
[1] = biological target: DYRK1A kinase (Homo sapiens (Human), UniProt Q13627); test: DYRK1A kinase assay (Ser/Thr 18 peptide Z-lyte, FRET)
[2] = test system: Tau phosphorylation at Ser396 (pSer396), SH-SY5Y cells; test: Tau phosphorylation at Ser396 (pSer396) in SH-SY5Y cells, ELISA/western blot; assay type: cell-based, human;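 also: cell lysates probed for reduced Tau pSer396 via ELISA (colorimetric) or western blot (chemiluminescence), both with one shared pSer396 antibody, EC50 for lowering phosphorylation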
[3] = test system: Wnt activity (Sp5-Luc reporter in SW480 colon carcinoma cells); test: Wnt activity screening assay (Sp5-Luc reporter gene assay); assay type: cell-based, human
Summary of the method: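 Compounds at 10 points (1:3 steps, top 10 μM, 0.1% DMSO final) were incubated 36 to 48 h at 37° C with stable Sp5-Luc SW480 reporter cells in 1% FBS medium. Luciferase luminescence was then read and expressed relative to DMSO-only cells. Four-parameter variable-slope fitting yielded EC50 values.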

[4] = biological target: GSK3β kinase (Homo sapiens (Human), UniProt P49841); test: GSK3β kinase assay (Ser/Thr 09 peptide Z-lyte, FRET); assay type: biochemical; conditions: method text calls the value IC50;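 also: Coumarin/fluorescein emission ratio converted to percent phosphorylation against unphosphorylated (0%) and phosphorylated (100%) controls, 1 h compound incubation at room temperature, 11-point threefold dilutions from 10 µM, run in duplicate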
[5] = test system: SW480 colon carcinoma cells; test: Cell viability assay (CellTiter-Glo) in SW480 cells; assay type: cell-based, human;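 also: SW480 cells stably carrying an Sp5-luciferase TCF/LEF reporter, luminescent ATP signal as viability measure, DMSO-treated cells as control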
[6] = test system: LL29 cells (primary human fibroblasts derived from IPF patients), α-smooth muscle actin; test: Inhibition of fibrotic process: αSMA in TGF-β1-treated primary human fibroblasts from IPF patients (LL29 cells); assay type: cell-based; conditions: for EC50: % αSMA-positive LL29 cells, TGF-β1 20 ng/mL, 4 days; for inhibition at 10 µM: read-out: percent inhibition at 10 μM
Summary of the method: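 Read-out is the percentage of αSMA-positive cells by high-content imaging, excluding SYTOX green-positive dead/apoptotic cells, normalized to TGF-β1-only wells on the same plate. LL29 cells were exposed for 4 days at 37 °C to 20 ng/mL TGF-β1 plus 11-point, 2-fold compound dilutions in 0.1% DMSO.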

[7] = test system: IL-6; test: IL-6 inhibition in LPS-stimulated human peripheral blood mononuclear cells (HTRF); assay type: cell-based; conditions: for EC50: IL-6, LPS-stimulated huPBMCs, HTRF; for inhibition at 10 µM: read-out: percent value in parentheses below EC50 >10
Summary of the method: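 EC50 from a 4-parameter fit of DMSO-normalized HTRF (665/620 nm) IL-6 signal, duplicates. Compound was added to fresh human PBMCs in 1% FBS RPMI for 2 h (top 10 μM, 3-fold, 0.25% DMSO) before 22 h stimulation with LPS at 50 ng/mL, 37 °C.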

[8] = DYRK1A kinase, method text calls the value IC50
[9] = Homo sapiens, SH-SY5Y, read-out: pSer396 Tau EC50 (μM)
[10] = Homo sapiens; Sp5-Luc reporter, SW480 cells, 36 to 48 hours
[11] = Homo sapiens, 96 h; cell viability, SW480 cells, four days, CellTiter-Glo
[12] = Homo sapiens, SW480, read-out: percent inhibition at 10 μM
[13] = Homo sapiens, SH-SY5Y cells, overnight (16-18 h), read-out: pSer396 Tau EC50
[14] = Homo sapiens, SW480; read-out: percent inhibition at 10 μM

Sequence of GSK3β kinase (P49841 whole entry): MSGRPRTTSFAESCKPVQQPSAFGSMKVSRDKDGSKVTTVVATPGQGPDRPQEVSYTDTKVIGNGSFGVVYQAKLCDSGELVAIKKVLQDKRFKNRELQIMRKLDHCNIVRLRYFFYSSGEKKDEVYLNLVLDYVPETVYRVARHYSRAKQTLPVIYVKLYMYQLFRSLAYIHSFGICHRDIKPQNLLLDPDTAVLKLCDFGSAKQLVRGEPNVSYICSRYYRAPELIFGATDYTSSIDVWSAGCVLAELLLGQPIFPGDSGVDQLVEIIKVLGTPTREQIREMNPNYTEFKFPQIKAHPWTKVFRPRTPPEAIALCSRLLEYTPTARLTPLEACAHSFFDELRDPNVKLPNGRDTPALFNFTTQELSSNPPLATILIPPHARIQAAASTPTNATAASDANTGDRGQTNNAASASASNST

Row | EC50 [4] [nM] | EC50 [2, 13] [µM] | EC50 [1] [nM] | EC50 ([2]; SH-SY5Y cells, overnight (16-18 h), read-out: pSer396 Tau EC50) [µM] | EC50 ([3]; Sp5-Luc reporter, SW480 cells, 36 to 48 hours) [nM] | EC50 ([5]; cell viability, SW480 cells, four days, CellTiter-Glo) [nM] | EC50 [7] [nM] | Molecule | EC50 [1, 8] [nM] | EC50 [2, 9] [µM] | EC50 [3, 10] [nM] | EC50 [5, 11] [nM] | inhibition at 10 µM [5, 12] [%] | EC50 ([6]; Homo sapiens, Fibroblast, 96 h) [nM] | EC50 ([7]; Homo sapiens, PBMC) [nM] | inhibition at 10 µM [3, 12] [%] | inhibition at 10 µM ([6]; Homo sapiens, Fibroblast) [%] | inhibition at 10 µM ([7]; Homo sapiens, PBMC) [%] | inhibition at 10 µM [5, 14] [%] | inhibition at 10 µM [3, 14] [%] | EC50 [6] [nM]
1 | 12 | 0.218 |  |  |  |  |  | Cc1nnc(-c2ccc3cnc(NC(=O)[C@H]4CC[C@H](N5CCN(C)CC5)CC4)cc3c2)s1 [Compound 194, trans-N-(6-(5-methyl-1,3,4-thiadiazol-2-yl)isoquinolin-3-yl)-4-(4-methylpiperazin-1-yl)cyclohexane-1-carboxamide] | 3 |  | 681 | 1260 |  | 328 | 3090 |  |  |  |  |  | 
2 | 17 | 0.234 |  |  |  |  |  | COCCN[C@H]1CC[C@H](C(=O)Nc2cc3cc(-c4nnc(C)s4)ccc3cn2)CC1 [Compound 199, trans-4-((2-Methoxyethyl)amino)-N-(6-(5-methyl-1,3,4-thiadiazol-2-yl)isoquinolin-3-yl)cyclohexane-1-carboxamide] | 4 |  | 982 | 1640 |  | 3200 | 3860 |  |  |  |  |  | 
3 | 407 | > 10 | 2 |  |  |  |  | Cn1cc(-c2ccc3cnc(NC(=O)c4cc[n+]([O-])c(N5CC[N+](C)([O-])CC5)c4)cc3c2)nn1 [Compound 225, 1-methyl-4-(4-((6-(1-methyl-1H-1,2,3-triazol-4-yl)isoquinolin-3-yl)carbamoyl)-1-oxidopyridin-2-yl)piperazine 1-oxide] |  |  | 3850 | > 10000 |  | > 10000 | > 10000 |  | 24.8 | 6.9 | 28.7 |  | 
4 | 1190 | > 10 | 4 |  |  |  |  | [2H]C([2H])([2H])[N+]1([O-])CCN(c2cc(C(=O)Nc3cc4cc(-c5cn(C)nn5)ccc4cn3)ccn2)CC1 [Compound 226, 1-(Methyl-d3)-4-(4-((6-(1-methyl-1H-1,2,3-triazol-4-yl)isoquinolin-3-yl)carbamoyl)pyridin-2-yl)piperazine 1-oxide] |  |  | > 10000 | > 10000 |  | > 10000 | > 10000 |  | 33.2 | 4.5 | 46.9 | 31.6 | 

The next lines start with the molecule.

Row | Molecule | EC50 [4] [nM] | EC50 [2, 13] [µM] | EC50 [1] [nM] | EC50 ([2]; SH-SY5Y cells, overnight (16-18 h), read-out: pSer396 Tau EC50) [µM] | EC50 ([3]; Sp5-Luc reporter, SW480 cells, 36 to 48 hours) [nM] | EC50 ([5]; cell viability, SW480 cells, four days, CellTiter-Glo) [nM] | EC50 [7] [nM] | EC50 [1, 8] [nM] | EC50 [2, 9] [µM] | EC50 [3, 10] [nM] | EC50 [5, 11] [nM] | inhibition at 10 µM [5, 12] [%] | EC50 ([6]; Homo sapiens, Fibroblast, 96 h) [nM] | EC50 ([7]; Homo sapiens, PBMC) [nM] | inhibition at 10 µM [3, 12] [%] | inhibition at 10 µM ([6]; Homo sapiens, Fibroblast) [%] | inhibition at 10 µM ([7]; Homo sapiens, PBMC) [%] | inhibition at 10 µM [5, 14] [%] | inhibition at 10 µM [3, 14] [%] | EC50 [6] [nM]
5 | Cc1nnc(-c2ccc3cnc(NC(=O)N4[C@@H]5CC[C@H]4C[C@@H](NCC(F)F)C5)cc3c2)s1 [Compound 188, (1R,5S)-cis-3-((2,2-difluoroethyl)amino)-N-(6-(5-methyl-1,3,4-thiadiazol-2-yl)isoquinolin-3-yl)-8-azabicyclo [3.2.1]octane-8-carboxamide] | 154 |  |  |  |  |  |  | 3 | 4.8 | 8210 | > 10000 | 28 | 2480 | 5770 |  |  |  |  |  | 
6 | Cc1nnc(-c2ccc3cnc(NC(=O)N4[C@@H]5CC[C@H]4C[C@@H](N)C5)cc3c2)s1 [Compound 193, (1R,5S)-3-endo-Amino-N-(6-(5-methyl-1,3,4-thiadiazol-2-yl)isoquinolin-3-yl)-8-azabicyclo[3.2.1]octane-8-carboxamide] | 330 |  |  |  |  |  |  | 33 | > 10 | > 10000 | > 10000 | 12.8 | > 10000 | > 10000 | 8.4 | 6.5 | 6.5 |  |  | 
7 | Cn1cc(-c2ccc3cnc(NC(=O)[C@H]4CC[C@H](NCCF)CC4)cc3c2)cn1 [Compound 197, trans-4-((2-Fluoroethyl)amino)-N-(6-(1-methyl-1H-pyrazol-4-yl)isoquinolin-3-yl)cyclohexane-1-carboxamide] | 87 | 0.57 |  |  |  |  |  | 3 |  | 1420 | 1270 |  | 233 | 994 |  |  |  |  |  | 
8 | Cc1nnc(-c2ccc3cnc(NC(=O)[C@H]4CC[C@H](NCCF)CC4)cc3c2)s1 [Compound 200, trans-4-((2-Fluoroethyl)amino)-N-(6-(5-methyl-1,3,4-thiadiazol-2-yl)isoquinolin-3-yl)cyclohexane-1-carboxamide] | 14 | 0.095 |  |  |  |  |  | 6 |  | 841 | 1390 |  | 533 | 3980 |  |  |  |  |  | 
9 | trans-N-(6-(2-methyloxazol-5-yl)isoquinolin-3-yl)-4-((propan-2-yl-1,1,1,3,3,3-d6)amino)cyclohexane-1-carboxamide [Compound 141] | 50 |  |  | 0.594 | 2780 | 1570 | 388 | 9 |  |  |  |  |  |  |  |  |  |  |  | 321
